# What was measured:
# APESV = experiment: Example IV postemergence foliar-applied, greenhouse, cereal crops weeds; assay type: in vivo, Apera spica-venti (L.) Beauv.
# Procedure: (§1) Seeds of the desired test plant species were planted in Sun Gro MetroMix® 306 planting mixture, which typically has a pH of 6.0 to 6.8 and an organic matter content of about 30 percent, in plastic pots with a surface area of 103.2 square centimeters (cm^2). […] The plants were grown for 7-36 days in a greenhouse with an approximate 14 hour photoperiod which was maintained at about 18° C. during the day and about 17° C. during the night. Nutrients and water were added on a regular basis and supplemental lighting was provided with overhead metal halide 1000-Watt lamps as necessary. The plants were employed for testing when they reached the second or third true leaf stage.
# (§2) Treatments consisted of the benzyl ester of 4-amino-3-chloro-5-fluoro-6-(4-chloro-2-fluoro-3-methoxy-phenyl)pyridine-2-carboxylic acid (Compound A), formulated as an SC, a second cereal herbicide alone and then both in combination.
# (§3) Other herbicidal components were applied on an active ingredient basis and included acetyl-CoA carboxylase (ACCase)-inhibiting herbicides clodinafop-propargyl, fenoxaprop-P-ethyl, pinoxaden and tralkoxydim.
# (§4) Measured aliquots of benzyl ester of 4-amino-3-chloro-5-fluoro-6-(4-chloro-2-fluoro-3-methoxy-phenyl)pyridine-2-carboxylic acid (Compound A) were placed in 25 milliliter (mL) glass vials and diluted in a volume of 1.25% (v/v) Agri-Dex® crop oil concentrate to obtain stock solutions. Compound requirements are based upon a 12 mL application volume at a rate of 187 liters per hectare (L/ha). […] Formulated compounds were applied to the plant material with an overhead Mandel track sprayer equipped with an 8002E nozzle calibrated to deliver 187 L/ha over an application area of 0.503 square meters (m^2) at a spray height of 18 inches (46 cm) above average plant canopy. Control plants were sprayed in the same manner with the solvent blank.
# (§5) The treated plants and control plants were placed in a greenhouse as described above and watered by sub-irrigation to prevent wash-off of the test compounds. After 20-22 days, the condition of the test plants as compared with that of the control plants was determined visually and scored on a scale of 0 to 100 percent where 0 corresponds to no injury and 100 corresponds to complete kill.
# (§6) Colby's equation was used to determine the herbicidal effects expected from the mixtures (Colby, S. R. 1967. Calculation of the synergistic and antagonistic response of herbicide combinations. Weeds 15:20-22.).
# (§7) The following equation was used to calculate the expected activity of mixtures containing two active ingredients, A and B: Expected=A+B−(A×B/100)
# PHAMI = experiment: as above; assay type: in vivo, Phalaris minor Retz.
# Procedure: as §1, §2, §3, §4, §5, §6, §7
# KCHSC = experiment: as above; assay type: in vivo, Kochia scoparia (L.) Schrad.
# Procedure: as §1, §2, §3, §4, §5, §6, §7
# CYPES = experiment: Example V (second) postemergence foliar-applied ternary mixtures, greenhouse, direct seeded rice weeds; assay type: in vivo, Cyperus esculentus L.
# Procedure: as §5, with “After approximately 3 weeks,” for “After 20-22 days,”, “the untreated” for “the control”, “injury or growth inhibition” for “injury”
# as §6
# (§8) The following equation was used to calculate the expected activity of mixtures containing three active ingredients, A, B, and C: Expected=A+B+C−((A×B+A×C+B×C)/100)+(A×B×C/10000)
# ECHCG = experiment: as above; assay type: in vivo, Echinochloa crus-galli (L.) Beauv.; details: 280 gai/ha
# Text: Seeds or nutlets of the desired test plant species were planted in a soil matrix prepared by mixing a sandy loam or loam soil (e.g., 32 percent silt, 23 percent clay, and 45 percent sand, with a pH of about 6.5 and an organic matter content of about 1.9 percent) and calcareous grit in an 80 to 20 ratio. The soil matrix was contained in plastic pots with a volume of 1 quart and a surface area of 83.6 square centimeters (cm^2). When required to ensure good germination and healthy plants, a fungicide treatment and/or other chemical or physical treatment was applied. The plants were grown for 8-22 days in a greenhouse with an approximate 14 hr. photoperiod which was maintained at about 29° C. during the day and 26° C. during the night. Nutrients (Peters Excel® 15-5-15 5-Ca 2-Mg and iron chelate) were applied in the irrigation solution as needed and water was added on a regular basis. Supplemental lighting was provided with overhead metal halide 1000-Watt lamps as necessary. The plants were employed for testing when they reached the first through fourth true leaf stage.
# Treatments consisted of the benzyl ester of 4-amino-3-chloro-5-fluoro-6-(4-chloro-2-fluoro-3-methoxy-phenyl)pyridine-2-carboxylic acid (Compound A), formulated as an SC (suspension concentrate), an ACCase inhibitor, and a third herbicidal component, each applied alone and in ternary combination. Forms of compound A were applied on an acid equivalent basis.
# The ACCase inhibitor component was applied on an active ingredient basis and included cyhalofop-R-butyl formulated as Clincher® SF, fenoxaprop-p-ethyl formulated as RiceStar® HT, and profoxydim formulated as Aura® 20EC. Other herbicidal components were applied on an active ingredient or acid equivalent basis depending on the compound and included penoxsulam formulated as Grasp® SC, bentazon sodium formulated as Basagran®, triclopyr […] (TEA) salt formulated as Grandstand® R, bispyribac sodium formulated as Regiment® 80WP, imazamox ammonium formulated as Beyond®, benzobicyclon, quinclorac formulated as Facet® 75DF, glyphosate dimethylammonium (DMA) salt formulated as Durango® DMA, glufosinate ammonium formulated as Ignite® 280, fentrazamide formulated as an emulsifiable concentrate (EC), propyrisulfuron formulated as Zeta One®, and indanofan (technical grade material).
# Treatment requirements were calculated based upon the rates being tested, the concentration of active ingredient or acid equivalent in the formulation, and a 12 mL application volume at a rate of 187 L/ha.
# For treatments comprised of formulated compounds, measured amounts of compounds were placed individually in 25 mL glass vials and diluted in a volume of 1.25% (v/v) Agri-Dex® crop oil concentrate to obtain 12× stock solutions. […] Application solutions were prepared by adding an appropriate amount of each stock solution (e.g., 1 mL) and diluted to the appropriate final concentrations with the addition of 9 mL of an aqueous mixture of 1.25% (v/v) crop oil concentrate so that the final spray solutions contained 1.25% (v/v) crop oil concentrate.
# As required, additional water and/or 97:3 v/v acetone/DMSO was added to individual application solutions so that the final acetone and DMSO concentrations of the application solutions being compared were 8.1% and 0.25%, respectively.
# All stock solutions and applications solutions were visually inspected for compound compatibility prior to application. Spray solutions were applied to the plant material with an overhead Mandel track sprayer equipped with a 8002E nozzles calibrated to deliver 187 L/ha over an application area of 0.503 m^2 at a spray height of 18 inches (46 cm) above average plant canopy height. Control plants were sprayed in the same manner with the solvent blank.
# The treated plants and control plants were placed in a greenhouse as described above and watered by sub-irrigation to prevent wash-off of the test compounds. […]
# ECHCO = experiment: as above; assay type: in vivo, Echinochloa colona (L.) Link; details: 115 gai/ha
# Procedure: as §5, with “After approximately 3 weeks,” for “After 20-22 days,”, “the untreated” for “the control”, “injury or growth inhibition” for “injury”
# as §6, §8
# IPOHE = experiment: as above; assay type: in vivo, Ipomoea hederacea Jacq.; details: 28 gai/ha
# Procedure: as §5, with “After approximately 3 weeks,” for “After 20-22 days,”, “the untreated” for “the control”, “injury or growth inhibition” for “injury”
# as §6, §8
smiles,measurement,setting,value
"CCOC(=O)[C@@H](C)Oc1ccc(Oc2nc3ccc(Cl)cc3o2)cc1 [Fenoxaprop-P-ethyl, ethyl(2R)-2-[4-[(6-chloro-2-benzoxazolyl)oxy]phenoxy]propanoate]",Visual Weed Control (%) - 21 DAA APESV Obs,APESV; Fenoxaprop-P-ethyl 23 gai/ha,50%
same,Visual Weed Control (%) - 21 DAA APESV Obs,APESV; Fenoxaprop-P-ethyl 46 gai/ha,83%
same,Visual Weed Control (%) - 21 DAA PHAMI Obs,PHAMI; Fenoxaprop-P-ethyl 23 gai/ha,10%
same,Visual Weed Control (%) - 21 DAA PHAMI Obs,PHAMI; Fenoxaprop-P-ethyl 46 gai/ha,45%
same,Visual Weed Control (%) - 21 DAA KCHSC Obs,KCHSC; Fenoxaprop-P-ethyl 23 gai/ha,0%
same,Visual Weed Control (%) - 21 DAA KCHSC Obs,KCHSC; Fenoxaprop-P-ethyl 46 gai/ha,0%
O=C(O)c1c(Cl)ccc2cc(Cl)cnc12 [Quinclorac],Visual Weed Control (%) - 21 DAA CYPES Obs,CYPES; 280 gai/ha,0%
same,Visual Weed Control (%) - 21 DAA ECHCG Obs,ECHCG,10%
CP(=O)(O)CCC(N)C(=O)O (centres unmarked) [Glufosinate ammonium],Visual Weed Control (%) - 21 DAA ECHCO Obs,ECHCO,0%
COc1cc(OC)nc(Oc2cccc(Oc3nc(OC)cc(OC)n3)c2C(=O)O)n1 [Bispyribac sodium],Visual Weed Control (%) - 21 DAA CYPES Obs,CYPES; 28 gai/ha,20%
same,Visual Weed Control (%) - 21 DAA IPOHE Obs,IPOHE,60%

# Source: patent publication US9232796B2, “Herbicidal compositions comprising 4-amino-3-chloro-5-fluoro-6-(4-chloro-2-fluoro-3-methoxyphenyl) pyridine-2-carboxylic acid or a derivative thereof and acetyl-CoA carboxylase (ACCase) inhibitors” (DOW AGROSCIENCES LLC, priority 2012, dated 2016)
